Where a name gives a salt, the structure may show the parent alone. Read-outs that look alike come from different tables or passages of the source.
Legend:
[1] = system: MDA-MB-435s cells (human melanoma cells); assay: MDA-MB-435s cell proliferation inhibitory assay (CellTiter-Glo); assay type: cell-based
Protocol: (§1) • 1). […] Resuspend an appropriate amount of cell suspension to 3000 cells/100 μL according to the count, mixed well and then put the corresponding number of cells into a 96-well plate by pipette. • 3). Each hole of the edge was sealed with 100 μL DPBS and put into an incubator for culture. • 4). Day 1 drug addition: Prepare the storage solution of the compound to be tested 1 hour in advance. 24 h after plating, the culture medium was gradiently diluted to a concentration twice the final concentration of each group. Take out the plated cells from the incubator and add 100 μL of the corresponding 2-fold concentration medium to each well by pipette. • 5). Day 1 detected: Take out an appropriate amount of CTG 1 h in advance and the plate was allowed to equilibrate at room temperature for 30 min. 100 μL of CTG was added to each well and shaken for 5 mins, and then standed in the dark for 5 mins, the luminescence value was detected by ELISA. • 6). Day 4 detection: Take an appropriate amount of CTG 1 h in advance and rewarm it at room temperature in the dark. At the same time, take out the plate to be tested from the incubator and leave it to equilibrate at room temperature for 30 minutes; 72 h after adding the drug, 100 μL of culture medium was sucked out with pipette carefully from each cell well, and 100 μL of CTG was added. The mixture was shaken for 5 min, and after equilibration in the dark for 5 min, the luminescence value was detected with ELISA. • 7). Analyze data and write detailed experimental records.
Collect data and convert it into survival rate: Inhibition rate (%)=(100−(OD value of compound−OD value on the first day)/(OD value of control well-OD value on the first day))×100%
(§2) Input the compound into graphpad prism to obtain the corresponding IC50 value.

[2] = system: MCF-7 cells (human breast cancer cells); assay: MCF-7 cell proliferation inhibitory assay (CellTiter-Glo); assay type: cell-based
Protocol: • 1). […] Resuspend an appropriate amount of cell suspension to 4000 cells/100 μL according to the count, mixed well and then put the corresponding number of cells into a 96-well plate by pipette. • 3). Each hole of the edge was sealed with 100 μL DPBS and put into an incubator for culture. • 4). Day 1 drug addition: Prepare the storage solution of the compound to be tested 1 hour in advance. 24 h after plating, the culture medium was gradiently diluted to a concentration twice the final concentration of each group. Take out the plated cells from the incubator and add 100 μL of the corresponding 2-fold concentration medium to each well by pipette.
Day 1 detected: Take out the plate to be tested and an appropriate amount of CTG in advance and rewarm it at room temperature in the dark. 50 μL of CTG was added to each well at 24 h. Shake with the oscillator for 5 minutes, and after balancing in the dark for 5 minutes, detect the luminescence value with a microplate reader; The mixture was shaken for 5 min, and after equilibration in the dark for 5 min, the luminescence value was detected with ELISA. • 6). Day 4 detection: Take an appropriate amount of CTG 1 h in advance and rewarm it at room temperature in the dark. At the same time, take out the plate to be tested from the incubator and leave it to equilibrate at room temperature for 30 minutes; 72 h after adding the drug, 100 μL of culture medium was sucked out with pipette carefully from each cell well, and 50 μL of CTG was added. The mixture was shaken for 5 min, and after equilibration in the dark for 5 min, the luminescence value was detected with ELISA analyzer. • 7). Data analysis and processed.
Collect data and convert it into survival rate: Inhibition rate (%)=(100−(OD value of compound-OD value on the first day)/(OD value of control well-OD value on the first day))×100%
as §2

[3] = Caco-2 cell membrane permeability assay; settings: human, Caco-2
Protocol: (§3) Day 0 plated: After digesting the target cells in the logarithmic growth phase, make a single cell suspension and count. • 2). Took out the corresponding number of transwell chambers and placed them in a 24-well plate, added 200 μL PBS to the upper chamber, incubated for 10 mins, and removed the PBS from the upper chamber by pipette. • 3). According to the count, took an appropriate amount of cell suspension and resuspended it to 5000 cells/200 μL, mixed well and added it to the upper chamber of the transwell, and added 600 μL of complete culture medium to the lower chamber. • 4). medium exchanged on DAY1: The upper chamber and the lower chamber were exchanged with complete culture medium containing 0.1 mg/mL ascorbic acid for 9 days continuously, and the resistance value of membrane expansion was measured. […] Collected the liquid in the upper chamber and the lower chamber for detection. • 7). Calculated Papp according to the formula “Papp=dQ/(dt×A×C0)”. dQ/dt was the transport amount of drugs per unit time, which was the slope of the linear regression of cumulative drug release amount Q versus time t. A was the bottom area of the Transwell orifice plate membrane, and the bottom area was 0.33 cm^2 of 24-well plate in this experiment. Co was the initial concentration of drugs in the upper chamber (μg mL-1).

[4] = system: MDA-MB-231 cells (human breast cancer cells); assay: MDA-MB-231 cell proliferation inhibitory assay (CellTiter-Glo); assay type: cell-based
Protocol: as §1, §2

in vitro = settings: human, Caco-2
Protocol: as §3

[5] = system: Caco-2 cells (human colorectal adenocarcinoma cells)
Protocol: as §3

[6] = system: Caco-2 cells (human colorectal adenocarcinoma cells); assay: Caco-2 cell membrane permeability assay; settings: Caco-2 monolayer, apical to basolateral, 100 μg/mL, 180 min
Protocol: as §3

[7] = Homo sapiens, MDA-MB-435S, 72 h, read-out: Proliferation inhibition IC50
[8] = Homo sapiens, MCF7, 72 h, read-out: Proliferation inhibition IC50
[9] = Homo sapiens, MDA-MB-231, 72 h, read-out: Proliferation inhibition IC50

| SMILES | IC50 [1, 7] | IC50 [2, 8] | Papp A→B at 180 min, 100 μg/mL [3] | IC50 [4, 9] | Papp A→B at 180 min, 100 μg/mL (in vitro) | other results |
| --- | --- | --- | --- | --- | --- | --- |
| CC[C@@]1(O)C(=O)OCc2c1cc1n(c2=O)Cc2c-1nc1cc(F)c(C)c3c1c2[C@@H](N)CC3 [Compound B, Exatecan, reference compound] | 2.52 nM | 5.5 nM | 68.6 ×10⁻⁶ cm/s | 30.9 nM |  |  |
| CC[C@@]1(O)C(=O)OCc2c1cc1n(c2=O)Cc2c-1nc1cc(F)c(C)c3c1c2[C@@H](NC(=O)CO)CC3 [Dxd, reference compound] | 5.12 nM | 20.3 nM | 42 ×10⁻⁶ cm/s | 101 nM |  |  |
| CC[C@@]1(O)C(=O)OCc2c1cc1n(c2=O)Cc2c-1nc1cc(F)c(C)cc1c2[C@@H](C)N [Example 1] | 0.75 nM | 5.2 nM |  | 8.2 nM | 100 ×10⁻⁶ cm/s | IC50 ([1]; Homo sapiens, MDA-MB-435S, read-out: MDA-MB-435s Proliferation inhibition IC50): 0.75 nM; IC50 ([2]; Homo sapiens, MCF7, read-out: MCF-7 Proliferation inhibition IC50): 5.2 nM; Permeability compared with reference compounds (in words) [5]: obvious advantages over SN38 and exatecan; IC50 ([4]; Homo sapiens, MDA-MB-231, read-out: MDA-MB-231 Proliferation inhibition IC50): 8.2 nM |
| CC[C@@]1(O)C(=O)OCc2c1cc1n(c2=O)Cc2c-1nc1cc(F)c(C)cc1c2[C@H](C)O [Example 12c] | 0.7 nM | 3.5 nM |  | 6.6 nM | 96 ×10⁻⁶ cm/s | Permeability compared with reference compounds (in words) [5]: obvious advantages over SN38 and exatecan |
| CC[C@@]1(O)C(=O)OCc2c1cc1n(c2=O)Cc2c-1nc1cc(F)c(C)cc1c2[C@@H](C)NC(=O)CO [Example 13b] | 3.9 nM |  |  | 130 nM | 56.1 ×10⁻⁶ cm/s | IC50 ([2]; Homo sapiens, MCF7, MCF-7 cells, 72 h after adding the drug, Table 1, read-out: Proliferation inhibition IC50): 25.6 nM |
| COCCc1ccc(OCC(O)CNC(C)C)cc1 (stereo not drawn) [Metoprolol Tartrate] |  |  | 193 ×10⁻⁶ cm/s |  |  |  |
| CCc1c2c(nc3ccc(O)cc13)-c1cc3c(c(=O)n1C2)COC(=O)[C@]3(O)CC [SN38, reference compound] |  |  |  |  |  | IC50 ([1]; MDA-MB-435s cells, 72 h after adding the drug, Table 3, read-out: Proliferation inhibition IC50): 6.89 nM; IC50 ([2]; MCF-7 cells, 72 h after adding the drug, Table 1, read-out: Proliferation inhibition IC50): 22.5 nM; Permeability Coefficient (Papp 10^−6 cm/s) A→B [6]: 46.8 10^−6 cm/s; IC50 ([4]; MDA-MB-231 cells, 72 h after adding the drug, Table 2, read-out: Proliferation inhibition IC50): 124 nM |
